The test relates to P388 leukemia ip, CD2F1 mice, survival T/C. The test is described as follows: NCI In Vivo Anticancer Drug Screen. Data for tumor model P388 Leukemia (intraperitoneal) in CD2F1 (CDF1) mice. To be noted: endpoint: median survival time, higher = longer survival. The method, boiled down: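 Mice carrying the transplanted tumor received test compound or vehicle. Survival was recorded in each group, and the value is the treated-group measurement divided by that of the vehicle-treated control group.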

Where [1] appears, read: dose: 50.0 mg/kg/injection, schedule: Q01DX009 (ip), vehicle: saline with Tween-80.
Where [2] appears, read: dose: 100.0 mg/kg/injection, schedule: Q01DX009 (ip), vehicle: saline with Tween-80.
Setting [3] is: dose: 50.0 mg/kg/injection, schedule: Q01DX009 (ip), vehicle: Klucel (hydroxypropylcellulose) (HPC).
Where [4] appears, read: dose: 100.0 mg/kg/injection, schedule: Q01DX009 (ip), vehicle: Klucel (hydroxypropylcellulose) (HPC).
[5] abbreviates: dose: 200.0 mg/kg/injection, schedule: Q01DX009 (ip), vehicle: Klucel (hydroxypropylcellulose) (HPC).
Setting [6] is: dose: 25.0 mg/kg/injection, schedule: Q01DX009 (ip), vehicle: saline with Tween-80.
Where [7] appears, read: dose: 200.0 mg/kg/injection, schedule: Q01DX009 (ip), vehicle: saline with Tween-80.
The mark [8] stands for this setting: dose: 60.0 mg/kg/injection, schedule: Q01DX005 (ip), vehicle: saline with Tween-80.
[9] abbreviates: dose: 120.0 mg/kg/injection, schedule: Q01DX005 (ip), vehicle: saline with Tween-80.
The mark [10] stands for this setting: dose: 240.0 mg/kg/injection, schedule: Q01DX005 (ip), vehicle: saline with Tween-80.
Setting [11] is: dose: 50.0 mg/kg/injection, schedule: Q01DX005 (ip), vehicle: saline with Tween-80.
Where [12] appears, read: dose: 100.0 mg/kg/injection, schedule: Q01DX005 (ip), vehicle: saline with Tween-80.
[13] abbreviates: dose: 200.0 mg/kg/injection, schedule: Q01DX005 (ip), vehicle: saline with Tween-80.

Consider 22 compounds from PubChem BioAssay AID330 (DTP/NCI, 2004).

Several values for one entry are separate records, joined by “and”; a condition that tells them apart may be missing. Identical values can stand only once. Toxic doses and inconclusive results are not listed. Peptide text beside a SMILES is read from it. * marks the point of attachment. Cbz = O=C(OCc1ccccc1)*

For `Cc1ccc2c(c1)C(=O)C(CN1CCOCC1)CCO2` (stereo unspecified), the T/C by setting is: (dose: 100.0 mg/kg/injection, schedule: Q04DX003 (ip), vehicle: saline) 100 % of control; (dose: 200.0 mg/kg/injection, schedule: Q04DX003 (ip), vehicle: saline) 102 % of control; (dose: 400.0 mg/kg/injection, schedule: Q04DX003 (ip), vehicle: saline) 96 % of control.
On to `CCN(C)c1cc(=O)c2ccc3ccccc3c2o1`, for which the T/C under setting [1] is 101 % of control and the T/C under setting [2] is 105 % of control.
With `OC(c1ccncc1)(c1ccc(Cl)cc1)c1cccs1` (stereo unspecified), the T/C reads like this: under setting [3], 101 % of control; under setting [4], 98 % of control; under setting [5], 93 % of control.
`CCCC(CCC)=NNC(=S)SC`: the T/C (dose: 12.5 mg/kg/injection, schedule: Q01DX009 (ip), vehicle: saline with Tween-80) was 95 % of control; the T/C under setting [6] is 95 % of control; the T/C under setting [1] was 106 % of control and 95 % of control.
As for `CCOC(=O)c1[nH]c(C#N)c(C(=O)OCC)c1C`, the T/C is 86 % of control under setting [2]; 96 % of control under setting [7]; 105 % of control (dose: 400.0 mg/kg/injection, schedule: Q01DX009 (ip), vehicle: saline with Tween-80).
In the case of `N=c1ccn(O)cc1`, the T/C (dose: 6.25 mg/kg/injection, schedule: Q01DX005 (ip), vehicle: saline) is 101 % of control; the T/C (dose: 12.5 mg/kg/injection, schedule: Q01DX005 (ip), vehicle: saline) is 107 % of control; the T/C (dose: 12.5 mg/kg/injection, schedule: Q01DX009 (ip), vehicle: saline) is 111 % of control; the T/C (dose: 25.0 mg/kg/injection, schedule: Q01DX005 (ip), vehicle: saline) is 102 % of control; the T/C (dose: 25.0 mg/kg/injection, schedule: Q01DX009 (ip), vehicle: saline) is 111 % of control.
On to `CC(C)(C)c1cc(C(=O)O)c(SSc2ccccc2)c(C(=O)O)c1`, for which the T/C (dose: 100.0 mg/kg/injection, schedule: Q04DX002 (ip), vehicle: Klucel (hydroxypropylcellulose) (HPC)) is 105 % of control.
On to `Cc1ccc(S(=O)(=O)N2CCCN(S(=O)(=O)c3ccc(C)cc3)CCSCCCSCC2)cc1`, for which the T/C was 98 % of control under setting [6] and 87 % of control under setting [1].
Turning to `C=Cc1cc(C)ccc1C(=O)OCCCCCCCCCCCC`, the T/C under setting [3] is 98 % of control, the T/C under setting [4] is 101 % of control and the T/C under setting [5] was 98 % of control.
Turning to `CC1=C2CCCCCC2(O)OC1=O` (stereo unspecified), the T/C (dose: 6.25 mg/kg/injection, schedule: Q01DX001 (ip), vehicle: saline) is 109 % of control; the T/C (dose: 12.5 mg/kg/injection, schedule: Q01DX001 (ip), vehicle: saline) was 111 % of control; the T/C (dose: 25.0 mg/kg/injection, schedule: Q01DX001 (ip), vehicle: saline) is 104 % of control and 117 % of control; the T/C (dose: 50.0 mg/kg/injection, schedule: Q01DX001 (ip), vehicle: saline) was 120 % of control; the T/C (dose: 100.0 mg/kg/injection, schedule: Q01DX001 (ip), vehicle: saline) is 100 % of control.
On to `COc1ccc(-n2cc(-c3ccc(Cl)cc3)c3c(N)ncnc32)cc1`, for which the T/C under setting [8] is 105 % of control, the T/C under setting [9] is 94 % of control and the T/C under setting [10] was 86 % of control.
Regarding `Cc1ccc(NC(=O)Nc2sc(=S)c3c(c2C#N)CCCC3)c(C)c1`, the T/C by setting is: under setting [1], 87 % of control; under setting [2], 94 % of control; under setting [7], 89 % of control.
As to `COc1cccc2c1C(=O)c1c(O)c3c(c(O)c1C2=O)C[C@H](O)C[C@@H]3OC1CC(N)C(O)C(C)O1` (stereo partly specified), the T/C runs as follows: (dose: 0.5 mg/kg/injection, schedule: Q04DX003 (ip), vehicle: saline) 105 % of control; (dose: 1.0 mg/kg/injection, schedule: Q04DX003 (ip), vehicle: saline) 114 % of control; (dose: 1.56 mg/kg/injection, schedule: Q01DX009 (ip), vehicle: water) 155 % of control and 161 % of control; (dose: 2.0 mg/kg/injection, schedule: Q04DX003 (ip), vehicle: saline) 107 % of control; (dose: 3.13 mg/kg/injection, schedule: Q01DX009 (ip), vehicle: water) 174 % of control; (dose: 4.0 mg/kg/injection, schedule: Q04DX003 (ip), vehicle: saline) 117 % of control. Further, the T/C runs as follows: (dose: 4.7 mg/kg/injection, schedule: Q04DX003 (ip), vehicle: water) 109 % of control; (dose: 6.25 mg/kg/injection, schedule: Q01DX009 (ip), vehicle: water) 180 % of control and 209 % of control; (dose: 8.0 mg/kg/injection, schedule: Q04DX003 (ip), vehicle: saline) 108 % of control; (dose: 12.5 mg/kg/injection, schedule: Q01DX009 (ip), vehicle: water) 228 % of control and 236 % of control; (dose: 64.0 mg/kg/injection, schedule: Q04DX003 (ip), vehicle: saline) 169 % of control; (dose: 75.0 mg/kg/injection, schedule: Q04DX003 (ip), vehicle: water) 181 % of control. The T/C (dose: 113.0 mg/kg/injection, schedule: Q04DX003 (ip), vehicle: water) is 116 % of control and the T/C (dose: 128.0 mg/kg/injection, schedule: Q04DX003 (ip), vehicle: saline) was 100 % of control.
As to `CCOc1ccc(/C=N/NC(=O)CC2CCCCC2)cc1OC`, the T/C was 90 % of control under setting [8], 87 % of control under setting [9] and 95 % of control under setting [10].
Take `NC(C(=O)O)C(C(F)(F)F)C(F)(F)F` (stereo unspecified): the T/C (dose: 50.0 mg/kg/injection, schedule: Q01DX009 (ip), vehicle: saline) is 101 % of control; the T/C (dose: 100.0 mg/kg/injection, schedule: Q01DX009 (ip), vehicle: saline) was 102 % of control; the T/C (dose: 200.0 mg/kg/injection, schedule: Q01DX009 (ip), vehicle: saline) is 114 % of control.
Regarding `O=c1[nH]c(=S)nc2nc[nH]n12`, the T/C under setting [6] was 100 % of control; the T/C under setting [11] was 98 % of control; the T/C under setting [1] is 97 % of control; the T/C under setting [12] is 100 % of control; the T/C under setting [2] was 100 % of control; the T/C under setting [13] is 103 % of control. Also, the T/C under setting [7] was 106 % of control.
With `CC(=O)OC1CCC2C3CCC4=C(C(=O)C=CC4(C)O)C3CCC12C` (stereo unspecified), the T/C runs as follows: (dose: 4.0 mg/kg/injection, schedule: Q01DX009 (ip), vehicle: Klucel (hydroxypropylcellulose) (HPC)) 93 % of control; (dose: 8.0 mg/kg/injection, schedule: Q01DX009 (ip), vehicle: Klucel (hydroxypropylcellulose) (HPC)) 90 % of control; (dose: 16.0 mg/kg/injection, schedule: Q01DX009 (ip), vehicle: Klucel (hydroxypropylcellulose) (HPC)) 101 % of control; (dose: 32.0 mg/kg/injection, schedule: Q01DX009 (ip), vehicle: Klucel (hydroxypropylcellulose) (HPC)) 88 % of control; (dose: 64.0 mg/kg/injection, schedule: Q01DX009 (ip), vehicle: Klucel (hydroxypropylcellulose) (HPC)) 108 % of control.
For the compound `CSCCC(NC(=O)C(Cc1ccccc1)NC(=O)OCc1ccccc1)C(=O)O` (stereo not drawn) (Cbz-Phe-Met-OH; configuration not given here), the T/C is, setting by setting: under setting [11], 104 % of control; under setting [12], 105 % of control; under setting [13], 97 % of control.
`CC(=O)NCc1cc([N+](=O)[O-])ccc1O`: the T/C under setting [11] was 101 % of control, the T/C under setting [12] is 94 % of control and the T/C under setting [13] is 99 % of control.
For `CCCCCCCCCCCCCCCCCC[N+](C)(C)C`, for the setting “dose: 3.12 mg/kg/injection, schedule: Q01DX009 (ip), vehicle: saline”, the T/C was 118 % of control.
As to `Nc1ccccc1NC(=O)c1nc2ccccc2[nH]1`, the T/C reads like this: (dose: 100.0 mg/kg/injection, schedule: Q04DX003 (ip), vehicle: Klucel (hydroxypropylcellulose) (HPC)) 106 % of control; (dose: 200.0 mg/kg/injection, schedule: Q04DX003 (ip), vehicle: Klucel (hydroxypropylcellulose) (HPC)) 97 % of control; (dose: 400.0 mg/kg/injection, schedule: Q04DX003 (ip), vehicle: Klucel (hydroxypropylcellulose) (HPC)) 97 % of control.
Regarding `CSc1nc(N)cc(C(F)(F)F)n1`, the T/C under setting [11] is 88 % of control, the T/C under setting [12] was 99 % of control and the T/C under setting [13] was 97 % of control.
